What was measured:
C57BL/6J male mice = test: AMLN diet NASH mouse model, drug provided in the AMLN diet; assay type: in vivo; details: 60 mg/kg miricorilant in AMLN diet, 8 weeks; for Liver weight at termination of the study: vs diet-alone control (FIG. 8A)
Description: Two studies were conducted in C57BL/6J male mice (n=12 per group) maintained on a diet high in fat (40%), cholesterol (2%) and fructose (20%; referred to as the AMLN diet: see, e.g., Tolbol et al., World Journal of Gastroenterology, 24(2):179-194 (2018)) for 42 weeks before dosing with miricorilant was initiated. In the first study, all animals ate the AMLN diet, and received either placebo, 30 mg/kg miricorilant, or 60 mg/kg mifepristone once per day orally. […] All animals received the AMLN diet for 42 weeks prior to receiving their first dose of study drug or placebo. 4 weeks prior to receiving that first dose, a liver biopsy and histological examination of biopsy tissue was performed for each animal; 3 weeks prior to receiving that first dose, animals were randomized into three groups: control, miricorilant, or mifepristone. Only mice with fibrosis stage >=1 and steatosis score >=2 were allowed in the study and the groups were stratified according to liver col1a1 so that each study group had similar overall distributions of liver col1a1 among the mice. All animals continued on the study diet for the 3 weeks following randomization, at which time study drug or placebo administration began. All animals received their assigned drugs for 8 weeks (the 8 week in vivo study period). At 56 days (week 8) after initiation of drug administration, plasma ALT, AST, triglycerides, total cholesterol, and miricorilant levels were measured, and animals were sacrificed, liver necropsies were performed, liver histological ((NAFLD Activity Score, Fibrosis Stage, steatosis (scored using hematoxylin and eosin staining (HE)), col1a (scored using immunohistochemistry (IHC)) and Galectin-3 (IHC)) and liver biochemical measurements (including liver triglycerides and total cholesterol) were made, and liver and plasma samples were obtained for genetic ((e.g., RNA sequencing) and other analyses.
Thus, in these studies, the mice were subjected to a liver biopsy approximately 4 weeks before initiation of dosing with miricorilant and only mice with confirmed fibrosis (fibrosis stage ≥1) and steatosis (score ≥2) were entered into the study. At the end of the dosing period, blood samples were collected for determination of plasma ALT, AST, triglycerides, total cholesterol, and miricorilant. Liver samples were collected for analysis of triglycerides, total cholesterol, hydroxyproline, and histopathology. Body weight and food consumption were monitored throughout the study.
Type I collagen IHC staining Type I collagen (Southern Biotech, Cat. 1310-01) IHC were performed using standard procedures. Briefly, after antigen retrieval and blocking of endogenous peroxidase activity, slides were incubated with primary antibody. The primary antibody was detected using a polymeric HRP-linker antibody conjugate. Next, the primary antibody was visualized with DAB as chromogen. Finally, sections were counterstained in hematoxylin and cover-slipped.
Liver Galectin-3 content Galectin-3 (Biolegend, Cat. #125402) IHC was performed using standard procedures. Briefly, after antigen retrieval and blocking of endogenous peroxidase activity, slides were incubated with primary antibody. The primary antibody was detected using a linker secondary antibody followed by amplification using a polymeric HRP-linker antibody conjugate. Next, the primary antibody was visualized with DAB as chromogen. Finally, sections were counterstained in hematoxylin and cover-slipped.
Total liver col1a1 was evaluated from liver samples stained with anti-type I collagen (col1a1) (Southern Biotech, cat. 1310-01) at the end of the treatment period (typically using low power (20×) magnification). Galectin-3 content was evaluated from images of liver samples stained with anti-Galectin-3 (BioLegend, Cat. 125402) at the end of the treatment period (typically using low power (20×) magnification). Terminal relative (left) and total (right) liver type I Collagen (Col1a1) quantification was determined by morphometry. […]

[1] = test system: patients presumed to have NASH; test: Phase 2a study: NASH biomarkers (pro-C3, ELF score and its components); assay type: in vivo, human; details: for Enhanced Liver Fibrosis (ELF) Score, Change from Baseline mean / Enhanced Liver Fibrosis (ELF) Score, Value mean: unitless
Description: Measures of the effectiveness of miricorilant versus placebo in reducing liver fat were assessed by magnetic resonance imaging (MRI). The change from baseline MRI measurements relative to MRI measurements taken following a course of daily miricorilant or placebo administration were assessed by magnetic resonance imaging-proton density fat fraction (MRI-PDFF). Additionally, effects of miricorilant may be assessed by measuring one or more of the following, either by comparing change from baseline after one or more days of miricorilant administration, or by comparing measurements in patients administered miricorilant versus patients administered placebo: change in liver fat assessed by MRI-PDFF; change in AST, ALT, and gamma-glutamyl transferase (GGT); change in propeptide of type III collagen (pro-C3); change in enhanced liver fibrosis (ELF) score and its components (hyaluronic acid, tissue inhibitor of metalloproteinases-1 [TIMP-1], type III procollagen [PIIINP]); change in ACTH, serum cortisol, and serum aldosterone (pharmacodynamic assessments); change in Homeostatic Model Assessment of Insulin Resistance (HOMA-IR); change in absolute body weight; and other measurements. […] For patients with diabetes, change in HbA1c and change in fasting blood glucose may be measured to assess the effects of miricorilant. Change in blood pressure may be measured in patients with high blood pressure to assess the effects of miricorilant. Pharmacokinetic (PK) parameters were estimated from steady state plasma concentrations of miricorilant.
NASH biomarkers include AST, ALT, GGT, pro-C3, ELF score and its components (hyaluronic acid, TIMP-1, PIIINP). Blood for measuring levels of AST, ALT, and GGT (as part of the chemistry panel) will be collected. Small fragments of collagen, called propeptides, are released during fibrosis. Pro-C3 is the propeptide of type III collagen and detection of pro-C3 is anticipated to reflect the formation of new fibrotic tissue in the liver (Vilar-Gomez and Chalasani 2018). Blood samples for measuring pro-C3 were collected. […] Each of these markers is measured by an immunoassay and an ELF score is generated, from which a level of fibrosis severity can be determined.
(Units are nanograms per milliliter (ng/mL) except for the enhanced liver fibrosis score (ELF), which is unitless.)

Q: For `O=c1[nH]c(=O)c(Cc2cccc(C(F)(F)F)c2)c([C@H]2CC[C@H](c3ccccc3)CC2)[nH]1` [miricorilant, (E)-6-(4-Phenylcyclohexyl)-5-(3-trifluoromethylbenzyl)-1H-pyrimidine-2,4-dione], which “Relative and total liver Galectin-3 content” value (C57BL/6J male mice; IHC morphometry, vs vehicle (FIG. 8C)) is on record?
A: The value was “reduced”.

Q: What about the “Total liver type I collagen (col1a1) content” value (C57BL/6J male mice; IHC morphometry, vs vehicle, significant as total weight (FIG. 8B)) of the same molecule?
A: The value was “reduced”.

Q: And the Body weight (C57BL/6J male mice; vs diet-alone control)?
A: Its Body weight is “significantly reduced”.

Q: And the “Liver weight at termination of the study” value (C57BL/6J male mice)?
A: Its value is “reduced”.

Q: What about the “Liver weight at termination of the study” value (C57BL/6J male mice; listed as Miricorilant) of the same molecule?
A: The value was “significantly reduced”.

Q: What about the “Hyaluronic Acid, Change from Baseline mean” value ([1]; 600 mg Miricorilant (N = 5)) of the same molecule?
A: The value was -17.8 ng/mL.

Q: What about the “Hyaluronic Acid, Value mean” value ([1]; 600 mg Miricorilant (N = 5)) of the same molecule?
A: Its value is 70.7 ng/mL.

Q: What about the “Propeptide of Type III Collagen (pro-C3), Change from Baseline mean” value ([1]; 600 mg Miricorilant (N = 5)) of the same molecule?
A: The value was 0.5 ng/mL.

Q: What about the “Propeptide of Type III Collagen (pro-C3), Value mean” value ([1]; 600 mg Miricorilant (N = 5)) of the same molecule?
A: Its value is 10.7 ng/mL.

Q: And the “Tissue Inhibitor of Metalloproteinases-1 (TIMP-1), Change from Baseline mean” value ([1]; 600 mg Miricorilant (N = 5))?
A: The value was 3.2 ng/mL.

Q: And the “Tissue Inhibitor of Metalloproteinases-1 (TIMP-1), Value mean” value ([1]; 600 mg Miricorilant (N = 5))?
A: The value was 249.5 ng/mL.

Q: And the “Type III Procollagen (PIIINP), Change from Baseline mean” value ([1]; 600 mg Miricorilant (N = 5))?
A: Its value is -0.17 ng/mL.

Q: And the “Type III Procollagen (PIIINP), Value mean” value ([1]; 600 mg Miricorilant (N = 5))?
A: The value was 9.3 ng/mL.

Q: What about the “Enhanced Liver Fibrosis (ELF) Score, Change from Baseline mean” value ([1]; 600 mg Miricorilant (N = 5)) of the same molecule?
A: The value was −0.05.

Q: And the “Enhanced Liver Fibrosis (ELF) Score, Value mean” value ([1]; 600 mg Miricorilant (N = 5))?
A: The value was 9.4.

Q: What about the “Hyaluronic Acid, Change from Baseline mean” value ([1]; 900 mg Miricorilant (N = 3)) of the same molecule?
A: The value was -50.0 ng/mL.

Q: And the “Hyaluronic Acid, Value mean” value ([1]; 900 mg Miricorilant (N = 3))?
A: The value was 110.9 ng/mL.

Q: And the “Propeptide of Type III Collagen (pro-C3), Change from Baseline mean” value ([1]; 900 mg Miricorilant (N = 3))?
A: The value was -7.9 ng/mL.

Q: What about the “Propeptide of Type III Collagen (pro-C3), Value mean” value ([1]; 900 mg Miricorilant (N = 3)) of the same molecule?
A: The value was 24.1 ng/mL.

Q: And the “Tissue Inhibitor of Metalloproteinases-1 (TIMP-1), Change from Baseline mean” value ([1]; 900 mg Miricorilant (N = 3))?
A: Its value is -79.4 ng/mL.

Q: And the “Tissue Inhibitor of Metalloproteinases-1 (TIMP-1), Value mean” value ([1]; 900 mg Miricorilant (N = 3))?
A: Its value is 402.1 ng/mL.

Q: What about the “Type III Procollagen (PIIINP), Change from Baseline mean” value ([1]; 900 mg Miricorilant (N = 3)) of the same molecule?
A: Its value is -5.35 ng/mL.

Q: What about the “Type III Procollagen (PIIINP), Value mean” value ([1]; 900 mg Miricorilant (N = 3)) of the same molecule?
A: Its value is 17.7 ng/mL.

Q: And the “Enhanced Liver Fibrosis (ELF) Score, Change from Baseline mean” value ([1]; 900 mg Miricorilant (N = 3))?
A: The value was −0.90.

Q: And the “Enhanced Liver Fibrosis (ELF) Score, Value mean” value ([1]; 900 mg Miricorilant (N = 3))?
A: Its value is 10.6.

Reference: patent US12616698B2, “Methods for reducing liver fat and for treating fatty liver disorders” (Corcept Therapeutics Incorporated, priority 2021, dated 2026)
